Series [1] can be described thus: Human liver microsome stability. Type of series: in vitro ADME. Particulars: human liver microsomes 0.5 mg/mL, 37° C., 60 minutes; for half-life at 2 μM: read-out: T1/2 (microsomal); for microsomal CLint at 2 μM: read-out: in vitro CLint (microsomal). How it is done:
The tested compound was incubated in duplicate with human liver microsomes (0.5 mg/mL) at 37° C. These incubations were carried out at a final test article concentration of 2 μM over a total incubation period of 60 minutes. Samples were taken at 0, 15, 30, 45 and 60 min and the reaction terminated by addition of 4 volumes of acetonitrile containing internal standard (100 nM alprazolam, 200 nM imipramine, 200 nM labetalol and 2 μM ketoprofen). Diclofenac was used as a positive control in this study. The samples were analyzed by UPLC-MS/MS to determine the concentration of the test compound and the percent remaining, intrinsic clearance (in vitro CLint) and half-life (t1/2) values were calculated.
Chromatographic analyses were performed on a Shimadzu UPLC apparatus (Kyoto, Japan) consisting of a gradient pump (model LC-30AD), an automatic injector (model HTC PAL System) and an on-line degasser (model DGU-20A5R). Detection was a triple quadrupole tandem mass spectrometer equipped with a turbo ion spray interface (API 4000/Triple Quad 4500/Triple Quad 5500/Triple Quad 6500). Data acquisition and integration were carried out with LC-MS software (Analyst 1.6) linked directly to the LC-MS/MS system. Chromatographic separations were achieved on a XSelect Hss T3 2.5μ (2.1×30 mm) Column. The mobile phase was 0.1% formic acid in water (A) and 0.1% formic acid in acetonitrile (B). The flow rate was 1.0 mL/min and column was maintained at 40° C.
Half-life (T1/2) data is measured in minutes, and in Table B2, in both microsomal and hepatic assays, the data is grouped into categories of: • A T1/2=1000+ • B T1/2=500 to 1000 • C T1/2=100 to 500 • D T1/2<100
In vitro clearance (CLint) data is measured in μL/min/mg prot, and in Table B2, in both microsomal and hepatic assays, the data is grouped into categories of: • A CLint<1 • B CLint=1 to 10 • C CLint=10 to 20 • D CLint=20+
In general terms: Liver microsomes are vesicles of endoplasmic reticulum, rich in cytochrome P450 enzymes.

The target of a further series is T1, EP2 receptor (Homo sapiens, UniProt P43116).
T1 construct: expressed in transfected cells; host or cells: CHO-K1 cells (ATCC), transiently transfected with FuGENE 6
T1 sequence (P43116 whole entry): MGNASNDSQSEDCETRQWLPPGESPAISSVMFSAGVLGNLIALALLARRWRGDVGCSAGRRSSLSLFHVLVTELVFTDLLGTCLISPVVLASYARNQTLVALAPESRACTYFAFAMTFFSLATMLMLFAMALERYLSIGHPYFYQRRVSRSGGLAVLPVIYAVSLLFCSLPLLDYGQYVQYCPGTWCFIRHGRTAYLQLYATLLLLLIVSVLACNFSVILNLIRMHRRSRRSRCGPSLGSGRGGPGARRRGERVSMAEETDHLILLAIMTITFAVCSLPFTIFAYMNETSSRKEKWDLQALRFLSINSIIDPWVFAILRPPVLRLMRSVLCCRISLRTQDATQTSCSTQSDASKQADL
Briefly: EP2 potency assay (cAMP TR-FRET, LANCE Ultra cAMP kit, antagonism of prostaglandin E2 at EC80). Type of series: cell-based. The settings on record: CHO-K1 cells transfected with EP2 receptor. On the procedure: Compound potency was measured using a cAMP TR-FRET assay.
CHO-K1 cells (ATCC) were seeded at a density of 9.75×10^5 in 6 cm plates, and then on the following day cell media was changed to Opti-Mem I reduced serum media (Gibco), and transfected with a plasmid for expression of the EP2 receptor (the target receptor of interest), using the FuGENE 6 Transfection reagent (Promega). After 6 hours incubation, the cell media was replaced with F12 medium supplemented with 10% FBS and 100 U/ml Pen-Strep. 24 hours after transfection, cells were harvested and seeded at a density of 3000 cells/well in a 384 well plate to perform the cAMP assay, using the LANCE Ultra cAMP assay kit (PerkinElmer).
For each test compound of interest, 10 nl/well of serially diluted test compound was added to each well, resulting in a range of 10 serially diluted compound concentrations from 10000 nM to 0.038 nM, with duplicate wells for each concentration. Plates were then centrifuged at 1000 rpm for 1 min, agitated at 600 rpm at R.T. for 2 min, and incubated at 25° C. for 5 min. The reference agonist, prostaglandin E2 (MCE), was added to each well at the appropriate concentration to reach its EC80 value. Plates were then centrifuged at 1000 rpm for 1 min, agitated at 600 rpm at R.T. for 2 min, and incubated at 25° C. for 30 min.
To measure levels of cAMP, 5 μl/well of Eu-cAMP working solution and 5 μl/well of Ulight-anti-cAMP working solution were added to each well, and plate was centrifuged at 1000 rpm for 1 min, agitated at 600 rpm at R.T. for 2 min, and incubated at 25° C. for 15 min. Levels of TR-FRET fluorescence were measured in each well using an EnVision microplate reader (excitation wavelength=337 nm and emission wavelength=615 and 665 nm). A dose-response curve was prepared by plotting percent inhibition for each compound concentration, and then IC50 was calculated by fitting a curve to the plotted values and extrapolating the IC50 concentration.
Potency data is grouped into categories of AA (IC50<100 nM); A (IC50=100 to 500 nM); B (IC50=500 nM to 1 μM); C (IC50=1 μM to 5 μM); and D (IC50>5 μM).
(In general: In TR-FRET formats the signal depends on donor and acceptor labels being close together.)

Consider 19 molecules from patent US12297171B2, “EP2 antagonist compounds” (Reservoir Neuroscience, Inc., priority 2021, dated 2025).

`COc1ccc(C(=O)N2CCC(COc3ccc(-c4ccc(C#N)cc4)cc3)(n3nn[nH]c3=O)C2)cc1` (racemic) [Compound 2-2, 4′-((1-(4-methoxybenzoyl)-3-(5-oxo-4,5-dihydro-1H-tetrazol-1-yl)pyrrolidin-3-yl)methoxy)-[1,1′-biphenyl]-4-carbonitrile]: in series [1], the half-life at 2 μM lay within 500 to 1000 min and the intrinsic metabolic clearance (microsomal CLint) (usually the capacity of the preparation to metabolise the compound, expressed as a volume cleared per time) at 2 μM lay within 1 to 10 µL/min/mg. For the same molecule, the half-maximal inhibitory concentration (IC50) (in general, the point on the concentration scale where inhibition reaches its midpoint) against EP2 receptor fell in the range of 500 to 1000 nM.
For `COc1ccc(C(=O)N2CCC(C#N)(COc3ccc(-c4ccc(C#N)cc4)cc3)C2)cc1` (racemic) [Compound 2-3, 3-(((4′-cyano-[1,1′-biphenyl]-4-yl)oxy)methyl)-1-(4-methoxybenzoyl)pyrrolidine-3-carbonitrile], in series [1], the half-life at 2 μM is under 100 min and the intrinsic metabolic clearance (microsomal CLint) at 2 μM was over 20 µL/min/mg.
The like results for `COc1ccc2cc(OCC3(n4nn[nH]c4=O)CN(C(=O)c4ccc(F)cc4)C3)ccc2c1` [Compound 1-2, 1-(1-(4-fluorobenzoyl)-3-(((6-methoxynaphthalen-2-yl)oxy)methyl)azetidin-3-yl)-1,4-dihydro-5H-tetrazol-5-one] were, in that order, 100 to 500 min and 1 to 10 µL/min/mg.
In the case of `COc1ccc2cc(OCC3(C#N)CN(C(=O)c4ccc(F)cc4)C3)ccc2c1` [Compound 1-3, 1-(4-fluorobenzoyl)-3-(((6-methoxynaphthalen-2-yl)oxy)methyl)azetidine-3-carbonitrile], in series [1], the half-life at 2 μM is under 100 min and the intrinsic metabolic clearance (microsomal CLint) at 2 μM was over 20 µL/min/mg.
At EP2 receptor, `COc1ccc(C(N2CCC(COc3ccc(-c4ccc(C#N)cc4)cc3)(C(=O)O)C2)C(F)(F)F)cc1` (stereo not drawn) [Compound 4-1, 3-[({4′-cyano-[1,1′-biphenyl]-4-yl}oxy)methyl]-1-[2,2,2-trifluoro-1-(4-methoxyphenyl)ethyl]pyrrolidine-3-carboxylic acid; trifluoroacetic acid] registered an IC50 of over 5000 nM.
`COc1ccc(C(=O)N2CCC(COc3ccc(-c4ccc(C#N)cc4)cc3)(C(=O)NO)C2)cc1` (stereo not drawn) [Compound 4-13, 3-(((4′-cyano-[1,1′-biphenyl]-4-yl)oxy)methyl)-N-hydroxy-1-(4-methoxybenzoyl)pyrrolidine-3-carboxamide] yielded a concentration for half-maximal inhibition (IC50) against EP2 receptor of 1000 to 5000 nM.
Same read-out and setting: then `COc1ccc(C(=O)N2CCC(COc3ccc(-c4ccc(C#N)cc4)cc3)(c3cc[nH]c(=O)c3)C2)cc1` (stereo not drawn) [Compound 4-16, 4′-{[1-(4-methoxybenzoyl)-3-(2-oxo-1H-pyridin-4-yl)pyrrolidin-3-yl]methoxy}-[1,1′-biphenyl]-4-carbonitrile], with over 5000 nM; and `COc1ccc(C(=O)N2CCC(COc3ccc(-c4ccc(C#N)cc4)cc3)(C(=O)NCC(F)(F)F)C2)cc1` (stereo not drawn) [Compound 4-20, 3-(((4′-cyano-[1,1′-biphenyl]-4-yl)oxy)methyl)-1-(4-methoxybenzoyl)-N-(2,2,2-trifluoroethyl)pyrrolidine-3-carboxamide], with over 5000 nM; and `COc1ccc(C(=O)N2CCC(COc3ccc(-c4ccc(C#N)cc4)cc3)(C(=O)NC#N)C2)cc1` (stereo not drawn) [Compound 4-21, N-cyano-3-(((4′-cyano-[1,1′-biphenyl]-4-yl)oxy)methyl)-1-(4-methoxybenzoyl)pyrrolidine-3-carboxamide], with 1000 to 5000 nM.
The same measure, in the same setting: for `COc1ccc(C(=O)N2CCC(COc3ccc(-c4ccc(C#N)cc4)cc3)(C(=O)N(C)O)C2)cc1` (stereo not drawn) [Compound 4-22, 3-(((4′-cyano-[1,1′-biphenyl]-4-yl)oxy)methyl)-N-hydroxy-1-(4-methoxybenzoyl)-N-methylpyrrolidine-3-carboxamide] the value was 1000 to 5000 nM; for `CONC(=O)C1(COc2ccc(-c3ccc(C#N)cc3)cc2)CCN(C(=O)c2ccc(OC)cc2)C1` (stereo not drawn) [Compound 4-23, 3-(((4′-cyano-[1,1′-biphenyl]-4-yl)oxy)methyl)-N-methoxy-1-(4-methoxybenzoyl)pyrrolidine-3-carboxamide], over 5000 nM; for `CCS(=O)(=O)NC(=O)C1(COc2ccc(-c3ccc(C#N)cc3)cc2)CCN(C(=O)c2ccc(OC)cc2)C1` (stereo not drawn) [Compound 4-25, 3-[({4′-cyano-[1,1′-biphenyl]-4-yl}oxy)methyl]-N-(ethanesulfonyl)-1-(4-methoxybenzoyl)pyrrolidine-3-carboxamide], 500 to 1000 nM.
Same read-out and setting: then `COc1ccc(C(=O)N2CCC(COc3ccc(-c4ccc(C#N)cc4)cc3)(C(=O)NS(=O)(=O)CC(F)(F)F)C2)cc1` (stereo not drawn) [Compound 4-26, 3-[({4′-cyano-[1,1′-biphenyl]-4-yl}oxy)methyl]-1-(4-methoxybenzoyl)-N-(2,2,2-trifluoroethanesulfonyl)pyrrolidine-3-carboxamide], with 1000 to 5000 nM; and `COCS(=O)(=O)NC(=O)C1(COc2ccc(-c3ccc(C#N)cc3)cc2)CCN(C(=O)c2ccc(OC)cc2)C1` (stereo not drawn) [Compound 4-27, 3-[({4′-cyano-[1,1′-biphenyl]-4-yl}oxy)methyl]-1-(4-methoxybenzoyl)-N-methoxymethanesulfonylpyrrolidine-3-carboxamide], with 100 to 500 nM; and `COc1ccc(C(=O)N2CCC(COc3ccc(-c4ccc(C#N)cc4)cc3)(C(=O)NS(=O)(=O)C(C)C)C2)cc1` (stereo not drawn) [Compound 4-28, 3-[({4′-cyano-[1,1′-biphenyl]-4-yl}oxy)methyl]-1-(4-methoxybenzoyl)-N-(propane-2-sulfonyl)pyrrolidine-3-carboxamide], with 500 to 1000 nM.
Molecule `COc1ccc(C(=O)N2CCC(COc3ccc(-c4ccc(C#N)cc4)cc3)(C(=O)NS(=O)(=O)C(C)(C)C)C2)cc1` (stereo not drawn) [Compound 4-29, 3-[({4′-cyano-[1,1′-biphenyl]-4-yl}oxy)methyl]-1-(4-methoxybenzoyl)-N-(2-methylpropane-2-sulfonyl)pyrrolidine-3-carboxamide] yielded a 50% inhibitory concentration (IC50) against EP2 receptor of over 5000 nM.
On EP2 receptor, `COc1ccc(C(=O)N2CCC(COc3ccc(-c4ccc(C#N)cc4)cc3)(C(=O)NS(=O)(=O)C3CC3)C2)cc1` (stereo not drawn) [Compound 4-30, 3-[({4′-cyano-[1,1′-biphenyl]-4-yl}oxy)methyl]-N-(cyclopropanesulfonyl)-1-(4-methoxybenzoyl)pyrrolidine-3-carboxamide] gave a half-inhibitory concentration (IC50) of 1000 to 5000 nM.
With `COc1ccc(C(=O)N2CCC(COc3ccc(-c4ccc(C#N)cc4)cc3)(C(=O)NS(=O)(=O)c3ccccc3)C2)cc1` (stereo not drawn) [Compound 4-31, N-(benzenesulfonyl)-3-[({4′-cyano-[1,1′-biphenyl]-4-yl}oxy)methyl]-1-(4-methoxybenzoyl)pyrrolidine-3-carboxamide], the IC50 on EP2 receptor was over 5000 nM.
At EP2 receptor, `N#Cc1ccc(-c2ccc(OCC3(C(=O)O)CCN(C(c4ccc(Br)cc4)C(F)(F)F)C3)cc2)cc1` (stereo not drawn) [Compound 4-34, 1-[1-(4-bromophenyl)-2,2,2-trifluoroethyl]-3-[({4′-cyano-[1,1′-biphenyl]-4-yl}oxy)methyl]pyrrolidine-3-carboxylic acid] registered an IC50 of over 5000 nM.
